Laboratory results from publication PMC4042160, “In silico, in vitro and cellular analysis with a kinome-wide inhibitor panel correlates cellular LRRK2 dephosphorylation to inhibitor activity on LRRK2” (Frontiers in Molecular Neuroscience, 2014).

Legend:
[1] = biological target: T1, GST-tagged truncated LRRK2 containing residues 970 to 2527 (Homo sapiens, UniProt Q5S007); assay: In vitro LRRKtide peptide-substrate kinase assay, single dose testing (10 μM); assay type: biochemical; settings: LRRKtide assay @ 10 μM inhibitor; GST-LRRK2 970-2527; 10 μM ATP; mean, N = 3; solvent control = 100%
T1 construct: GST-tagged truncated LRRK2 containing residues 970 to 2527 (Life Technologies); purchased Life Technologies
T1 sequence (Q5S007 970-2527): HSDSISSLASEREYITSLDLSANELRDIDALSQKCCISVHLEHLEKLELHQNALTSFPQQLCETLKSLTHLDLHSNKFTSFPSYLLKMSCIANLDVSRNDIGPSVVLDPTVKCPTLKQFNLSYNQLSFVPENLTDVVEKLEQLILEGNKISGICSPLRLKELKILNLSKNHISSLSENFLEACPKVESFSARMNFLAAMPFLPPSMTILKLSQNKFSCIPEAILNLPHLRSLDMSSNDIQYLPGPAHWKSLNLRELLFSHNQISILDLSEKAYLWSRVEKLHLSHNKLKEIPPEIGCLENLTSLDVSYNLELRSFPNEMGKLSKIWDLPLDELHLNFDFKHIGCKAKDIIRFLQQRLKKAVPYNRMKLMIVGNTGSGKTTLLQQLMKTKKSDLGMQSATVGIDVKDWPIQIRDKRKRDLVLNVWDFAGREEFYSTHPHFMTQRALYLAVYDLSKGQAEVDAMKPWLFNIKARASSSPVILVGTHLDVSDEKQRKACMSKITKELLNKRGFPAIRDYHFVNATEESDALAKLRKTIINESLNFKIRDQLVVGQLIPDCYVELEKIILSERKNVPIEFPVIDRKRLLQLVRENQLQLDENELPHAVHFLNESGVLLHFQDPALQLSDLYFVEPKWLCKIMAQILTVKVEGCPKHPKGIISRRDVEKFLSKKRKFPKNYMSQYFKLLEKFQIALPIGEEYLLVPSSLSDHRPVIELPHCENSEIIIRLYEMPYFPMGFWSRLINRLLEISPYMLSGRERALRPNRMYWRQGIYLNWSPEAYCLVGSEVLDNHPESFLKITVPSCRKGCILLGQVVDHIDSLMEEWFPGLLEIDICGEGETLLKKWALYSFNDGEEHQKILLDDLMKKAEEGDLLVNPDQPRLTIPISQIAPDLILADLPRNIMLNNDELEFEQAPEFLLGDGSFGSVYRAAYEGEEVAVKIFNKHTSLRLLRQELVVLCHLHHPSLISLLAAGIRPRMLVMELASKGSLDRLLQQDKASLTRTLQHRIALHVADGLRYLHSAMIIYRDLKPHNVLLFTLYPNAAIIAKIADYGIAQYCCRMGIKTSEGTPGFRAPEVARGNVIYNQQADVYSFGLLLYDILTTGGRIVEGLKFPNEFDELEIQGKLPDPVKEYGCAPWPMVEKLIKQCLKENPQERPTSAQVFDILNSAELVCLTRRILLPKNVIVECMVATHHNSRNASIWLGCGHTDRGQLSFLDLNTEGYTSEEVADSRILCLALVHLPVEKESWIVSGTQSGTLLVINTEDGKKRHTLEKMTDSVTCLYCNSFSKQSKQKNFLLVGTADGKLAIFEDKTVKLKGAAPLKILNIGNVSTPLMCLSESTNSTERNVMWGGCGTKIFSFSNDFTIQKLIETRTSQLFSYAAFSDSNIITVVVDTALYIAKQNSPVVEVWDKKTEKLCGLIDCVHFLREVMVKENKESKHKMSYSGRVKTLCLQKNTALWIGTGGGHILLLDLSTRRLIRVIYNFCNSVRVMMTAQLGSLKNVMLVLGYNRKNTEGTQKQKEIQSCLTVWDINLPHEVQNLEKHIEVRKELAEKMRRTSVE

LRRK2 phospho-Ser935 = biological target: T2, LRRK2 phospho-Ser935 (Homo sapiens, UniProt Q5S007); assay: Cellular LRRK2 phosphoserine 935 dephosphorylation spotblot assay in SH-SY5Y cells stably expressing 3xFlag-LRRK2; assay type: cell-based; settings: for Phosphorylation level relative to solvent (%) (cellular pS935 assay): @ 5 μM for 2 h, SH-SY5Y stably expressing LRRK2, pS935/total LRRK2
T2 construct: expressed in transfected cells
T2 sequence (Q5S007 whole entry): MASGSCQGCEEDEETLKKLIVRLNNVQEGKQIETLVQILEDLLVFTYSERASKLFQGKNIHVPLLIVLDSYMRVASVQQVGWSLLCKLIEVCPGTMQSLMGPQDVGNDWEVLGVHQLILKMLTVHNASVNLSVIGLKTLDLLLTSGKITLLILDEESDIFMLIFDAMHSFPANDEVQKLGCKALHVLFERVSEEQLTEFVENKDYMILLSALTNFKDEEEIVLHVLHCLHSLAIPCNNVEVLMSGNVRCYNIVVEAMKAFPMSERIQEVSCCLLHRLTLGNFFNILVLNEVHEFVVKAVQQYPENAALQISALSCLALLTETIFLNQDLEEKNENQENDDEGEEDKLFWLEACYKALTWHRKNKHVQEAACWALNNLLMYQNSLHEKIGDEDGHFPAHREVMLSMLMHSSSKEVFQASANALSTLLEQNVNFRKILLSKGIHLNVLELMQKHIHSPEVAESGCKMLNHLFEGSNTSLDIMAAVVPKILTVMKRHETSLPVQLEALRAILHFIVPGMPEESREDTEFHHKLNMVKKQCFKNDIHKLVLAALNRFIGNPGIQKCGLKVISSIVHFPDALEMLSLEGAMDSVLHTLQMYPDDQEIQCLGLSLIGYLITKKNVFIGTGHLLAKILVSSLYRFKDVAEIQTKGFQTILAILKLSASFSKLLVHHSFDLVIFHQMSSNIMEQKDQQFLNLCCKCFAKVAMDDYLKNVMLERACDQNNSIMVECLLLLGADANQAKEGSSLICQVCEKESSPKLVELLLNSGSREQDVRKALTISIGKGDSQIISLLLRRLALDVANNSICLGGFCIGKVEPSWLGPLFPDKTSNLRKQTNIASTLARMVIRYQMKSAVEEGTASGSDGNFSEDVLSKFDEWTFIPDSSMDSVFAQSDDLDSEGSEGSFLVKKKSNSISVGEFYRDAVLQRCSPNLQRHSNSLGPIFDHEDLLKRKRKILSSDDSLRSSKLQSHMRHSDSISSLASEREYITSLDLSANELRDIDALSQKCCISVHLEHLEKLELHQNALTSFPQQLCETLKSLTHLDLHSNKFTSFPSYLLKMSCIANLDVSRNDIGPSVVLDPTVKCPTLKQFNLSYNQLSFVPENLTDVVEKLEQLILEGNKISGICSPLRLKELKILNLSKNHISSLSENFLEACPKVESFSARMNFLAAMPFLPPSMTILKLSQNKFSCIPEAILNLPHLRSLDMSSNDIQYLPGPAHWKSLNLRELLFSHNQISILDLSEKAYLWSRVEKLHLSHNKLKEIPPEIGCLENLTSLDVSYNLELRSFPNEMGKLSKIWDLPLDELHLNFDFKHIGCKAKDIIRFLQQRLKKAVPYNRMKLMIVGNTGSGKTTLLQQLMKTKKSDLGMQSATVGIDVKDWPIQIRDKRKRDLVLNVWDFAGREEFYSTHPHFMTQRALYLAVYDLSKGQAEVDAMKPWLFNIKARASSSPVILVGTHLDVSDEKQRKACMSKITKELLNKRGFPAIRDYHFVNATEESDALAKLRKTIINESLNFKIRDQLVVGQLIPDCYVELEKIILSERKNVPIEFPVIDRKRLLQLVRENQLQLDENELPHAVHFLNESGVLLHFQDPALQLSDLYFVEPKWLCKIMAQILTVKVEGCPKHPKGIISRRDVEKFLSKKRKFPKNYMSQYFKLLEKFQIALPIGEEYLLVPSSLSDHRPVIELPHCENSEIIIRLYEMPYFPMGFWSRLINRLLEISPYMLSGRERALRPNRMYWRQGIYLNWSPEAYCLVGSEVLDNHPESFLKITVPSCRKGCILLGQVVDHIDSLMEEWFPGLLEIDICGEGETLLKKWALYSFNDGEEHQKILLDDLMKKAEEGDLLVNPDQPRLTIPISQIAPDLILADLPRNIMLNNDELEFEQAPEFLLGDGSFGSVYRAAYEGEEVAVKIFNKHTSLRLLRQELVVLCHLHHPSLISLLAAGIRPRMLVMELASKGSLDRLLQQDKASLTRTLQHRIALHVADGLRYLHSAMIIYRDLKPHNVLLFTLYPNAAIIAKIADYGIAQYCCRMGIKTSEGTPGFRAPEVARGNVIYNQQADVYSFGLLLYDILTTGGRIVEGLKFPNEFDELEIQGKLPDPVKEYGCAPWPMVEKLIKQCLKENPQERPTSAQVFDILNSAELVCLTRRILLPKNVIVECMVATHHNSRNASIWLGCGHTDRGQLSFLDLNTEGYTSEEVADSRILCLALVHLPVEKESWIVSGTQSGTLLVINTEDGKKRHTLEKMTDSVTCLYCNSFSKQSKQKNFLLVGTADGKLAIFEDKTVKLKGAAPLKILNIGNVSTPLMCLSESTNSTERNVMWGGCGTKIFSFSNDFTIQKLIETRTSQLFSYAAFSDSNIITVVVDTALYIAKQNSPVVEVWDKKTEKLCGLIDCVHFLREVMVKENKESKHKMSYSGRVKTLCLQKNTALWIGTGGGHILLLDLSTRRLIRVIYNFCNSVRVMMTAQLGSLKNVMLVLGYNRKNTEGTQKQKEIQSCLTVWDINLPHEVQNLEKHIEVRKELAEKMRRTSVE

SMILES | % LRRKtide phosphorylation relative to solvent [1] | Phosphorylation level relative to solvent (%) (cellular pS935 assay) (LRRK2 phospho-Ser935) | Cellular pS935 (% @ 5 μM) (LRRK2 phospho-Ser935; pS935 level as % of control, 5 μM for 2 h, SH-SY5Y cells with stable expression of LRRK2)
CO[C@H]1C[C@@H]2CC[C@@H](C)[C@@](O)(O2)C(=O)C(=O)N2CCCC[C@H]2C(=O)O[C@H]([C@H](C)C[C@@H]2CC[C@@H](O)[C@H](OC)C2)CC(=O)[C@H](C)/C=C(\C)[C@@H](O)[C@@H](OC)C(=O)[C@H](C)C[C@H](C)/C=C/C=C/C=C/1C [Rapamycin] | 101.20% | 65.24% | –
O=C1NC(=O)c2cc(Nc3ccc(F)cc3)c(Nc3ccc(F)cc3)cc21 [PKCbII/EGFR inhibitor] | 67.41% | 56.68% | –
CCCNC(=O)Nc1ccc(Oc2ncnc3cc(OC)c(OC)cc23)cc1Cl [KRN63] | 68.07% | 62.48% | –
COc1ccc(S(=O)(=O)N(CCO)c2ccccc2CN(C)C/C=C/c2ccc(Cl)cc2)cc1 [KN-93] | 120.59% | 102.70% | –
COc1ccc(-c2cnc3c(-c4ccsc4)cnn3c2)cc1 [VEGF receptor 2 kinase inhibitor IV] | 77.83% | 48.48% | –
COc1ccc(Cl)cc1NC(=O)Nc1cc(C)nc2ccccc12 [IGF-1R inhibitor II] | 93.23% | 80.40% | –
c1ccc2c(-c3ccncc3)c[nH]c2c1 [Rho kinase inhibitor III, rockout, rockout] | 32.15% | 63.04% | –
O=C1NC(=O)C(c2c[nH]c3ccccc23)=C1c1c[nH]c2ccccc12 [Bisindolylmaleimide IV] | 3.07% | 84.51% | –
O=c1c(-c2ccc(F)cc2)c(-c2ccncc2)[nH]n1-c1ccc(Cl)cc1 [p38 MAP kinase inhibitor] | 132.68% | 93.68% | –
CN[C@@H]1C[C@H]2O[C@@](C)([C@@H]1OC)n1c3ccccc3c3c4c(c5c6ccccc6n2c5c31)C(=O)NC4 [Staurosporine, Streptomyces sp., Staurosporine] | – | – | 8.89%

Continued, in another order:

% LRRKtide phosphorylation relative to solvent [1] | Phosphorylation level relative to solvent (%) (cellular pS935 assay) (LRRK2 phospho-Ser935) | SMILES | Cellular pS935 (% @ 5 μM) (LRRK2 phospho-Ser935; pS935 level as % of control, 5 μM for 2 h, SH-SY5Y cells with stable expression of LRRK2)
68.38% | 84.67% | Nc1ncnc2c1cnn2-c1ccccc1 [PP3] | –
68.41% | 71.78% | CC(=O)c1ccc(N2CCOCC2)cc1O [DNA-PK inhibitor III] | –
17.88% | 107.46% | Cn1nc2c3c(cccc31)C(=O)c1ccccc1-2 [JNK inhibitor, negative control] | –
124.71% | 100.55% | N#C/C(=C(/N)SC1C=CC=CC1)c1cccc(C(O)c2ccncc2)c1 (stereo not shown) [MEK inhibitor I] | –
31.34% | 108.54% | O=C1Cc2c([nH]c3ccc([N+](=O)[O-])cc23)-c2ccccc2N1 [Alsterpaullone] | –
123.21% | 60.73% | O=C(CCCc1ccc(-c2ccccc2F)cc1)Nc1ccc(O)cc1 [MK2a inhibitor] | –
2.16% | 53.00% | O=C(c1cc2cc(O)ccc2[nH]1)c1cc2cc(O)ccc2[nH]1 [Flt-3 inhibitor II] | –
128.15% | 115.21% | COc1ccc(CNC(=O)Nc2ncc([N+](=O)[O-])s2)cc1 [GSK-3b inhibitor VIII] | –
64.37% | 57.76% | O=C(Nc1cccc(Nc2cc(Nc3cccc(C(F)(F)F)c3)ncn2)c1)C1CC1 [EGFR inhibitor] | –
